Legend:
S. aureus Newman [1] = assay: fitness (endpoint OD595 vs no drug) (fraction); higher = more growth
Summary of the method: (§1)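 Background-subtracted growth curves were the basis for fitness, taken as the optical density at entry into stationary phase over the robust mean of no-drug control wells. A cap of 1 was applied. The curves came from OD595 readings every 30 min for 14 h at 37 °C, in 384-well plates seeded at OD595 0.01 with 30 µl, or 55 µl for S. pneumoniae.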

S. pneumoniae D39V [2] = assay: as above
Summary of the method: as §1

B. subtilis 168 [3] = assay: as above
Summary of the method: as §1

S. aureus DSM 20231 = assay: Bliss interaction score (quartile over a dose matrix) (fitness difference); higher = more antagonism (negative = synergy)
Summary of the method: (§2)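 The Bliss score is observed fitness minus expected fitness, where the expected value is the product of single-drug fitness values inferred from combination data. Fitness is OD595 at entry into stationary phase normalised to the plate's robust no-drug mean and capped at 1. Scores are reported as quartiles spanning technical, biological and donor/recipient replicates.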

S. aureus Newman [4] = assay: as above
Summary of the method: as §2

S. pneumoniae D39V [5] = assay: as above
Summary of the method: as §2

B. subtilis 168 [6] = assay: as above
Summary of the method: as §2
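For Bliss interaction score (quartile over a dose matrix) in this document: first quartile when negative (synergy) and third quartile when positive (antagonism).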

O=C(O[C@@H]1Cc2c(O)cc(O)cc2O[C@@H]1c1cc(O)c(O)c(O)c1)c1cc(O)c(O)c(O)c1 [EGCG] + CN(C)c1cc(NC(=O)CNC(C)(C)C)c(O)c2c1C[C@H]1C[C@H]3[C@H](N(C)C)C(O)=C(C(N)=O)C(=O)[C@@]3(O)C(O)=C1C2=O [Tigecycline]
fitness
Conditions | first compound 6.25 µg/mL | first compound 12.5 µg/mL | first compound 25 µg/mL | first compound 50 µg/mL
B. subtilis 168 [3], partner 0.039 µg/mL | 0.929 | – | – | –
B. subtilis 168 [3], partner 0.078 µg/mL | 0.929 | – | – | –
B. subtilis 168 [3], partner 0.156 µg/mL | 0.91 | – | – | –
S. aureus Newman [1], partner 0.039 µg/mL | – | 0.755 | 0.744 | –
S. aureus Newman [1], partner 0.078 µg/mL | – | 0.797 | 0.788 | 0.657
S. aureus Newman [1], partner 0.156 µg/mL | – | 0.82 | 0.721 | 0.796
S. pneumoniae D39V [2], partner 0.325 µg/mL | – | 0.913 | 0.97 | 0.958
S. pneumoniae D39V [2], partner 0.65 µg/mL | – | 0.912 | 0.971 | 0.951
S. pneumoniae D39V [2], partner 1.3 µg/mL | – | 0.928 | 0.916 | 0.954
S. pneumoniae D39V [2], partner 2.6 µg/mL | – | 0.897 | 0.929 | 0.935

fitness, B. subtilis 168 [3], one replicate
Conditions | first compound 6.25 µg/mL | first compound 12.5 µg/mL | first compound 25 µg/mL
partner 0.125 µg/mL | ≥ 1 | 0.897 | 0.55
partner 0.25 µg/mL | 0.944 | 0.72 | 0.428
partner 0.5 µg/mL | 0.942 | 0.757 | 0.418

Conditions | Bliss interaction score
B. subtilis 168 [6] | 0.0564
S. aureus DSM 20231 | -0.0488
S. aureus Newman [4] | -0.067
S. pneumoniae D39V [5] | 0.079

C/C(=C\C(=O)OCCCCCCCCC(=O)O)C[C@@H]1OC[C@H](C[C@@H]2O[C@H]2[C@@H](C)[C@H](C)O)[C@@H](O)[C@H]1O [Pseudomonic acid] + CN(C)c1cc(NC(=O)CNC(C)(C)C)c(O)c2c1C[C@H]1C[C@H]3[C@H](N(C)C)C(O)=C(C(N)=O)C(=O)[C@@]3(O)C(O)=C1C2=O [Tigecycline]
fitness, S. aureus Newman [1], one replicate
Conditions | first compound 0.0313 µg/mL | first compound 0.0625 µg/mL | first compound 0.125 µg/mL
partner 0.039 µg/mL | 0.0303 | 0.0332 | 0.029
partner 0.078 µg/mL | 0.0326 | 0.0257 | 0.0238
partner 0.156 µg/mL | 0.0698 | 0.0522 | 0.0728

fitness, S. pneumoniae D39V [2]
Conditions | first compound 0.03 µg/mL | first compound 0.06 µg/mL | first compound 0.12 µg/mL
partner 0.65 µg/mL | 0.872 | 0.739 | 0.575
partner 1.3 µg/mL | 0.923 | 0.747 | 0.612
partner 2.6 µg/mL | 0.879 | 0.752 | 0.59

Conditions | Bliss interaction score
B. subtilis 168 [6] | 0.07
S. aureus DSM 20231 | 0.006
S. aureus Newman [4] | -0.0182
S. pneumoniae D39V [5] | -0.124

C/C(=C\C(=O)OCCCCCCCCC(=O)O)C[C@@H]1OC[C@H](C[C@@H]2O[C@H]2[C@@H](C)[C@H](C)O)[C@@H](O)[C@H]1O [Pseudomonic acid] + CN(N=O)C(=O)N[C@@H](C=O)[C@@H](O)[C@H](O)[C@H](O)CO [Streptozotocin]
fitness, S. aureus Newman [1], one replicate
Conditions | first compound 0.0313 µg/mL | first compound 0.0625 µg/mL | first compound 0.125 µg/mL
partner 0.15 µg/mL | 0.0359 | 0.0417 | 0.0264
partner 0.3 µg/mL | 0.0204 | 0.0023 | 0.0089
partner 0.6 µg/mL | 0.0135 | 0.0039 | 0.0091

fitness, S. pneumoniae D39V [2]
Conditions | first compound 0.03 µg/mL | first compound 0.06 µg/mL | first compound 0.12 µg/mL
partner 1.2 µg/mL | 0.834 | 0.722 | 0.533
partner 2.4 µg/mL | 0.885 | 0.718 | 0.538
partner 4.8 µg/mL | 0.874 | 0.752 | 0.56

Conditions | Bliss interaction score
B. subtilis 168 [6] | 0.105
S. aureus DSM 20231 | -0.011
S. aureus Newman [4] | -0.0211
S. pneumoniae D39V [5] | -0.0598

C/C(=C\C(=O)OCCCCCCCCC(=O)O)C[C@@H]1OC[C@H](C[C@@H]2O[C@H]2[C@@H](C)[C@H](C)O)[C@@H](O)[C@H]1O [Pseudomonic acid] + CN[C@@H]1[C@H](O)[C@H](NC)[C@H]2O[C@@]3(O)C(=O)C[C@@H](C)O[C@H]3O[C@@H]2[C@H]1O [Spectinomycin]
fitness, S. aureus Newman [1], one replicate
Conditions | first compound 0.0313 µg/mL | first compound 0.0625 µg/mL | first compound 0.125 µg/mL
partner 4 µg/mL | 0.0277 | 0.0288 | 0.0466
partner 8 µg/mL | 0.0165 | 0.0234 | 0.0364
partner 16 µg/mL | 0.0048 | 0.0214 | 0.0111

fitness, S. pneumoniae D39V [2]
Conditions | first compound 0.03 µg/mL | first compound 0.06 µg/mL | first compound 0.12 µg/mL
partner 4 µg/mL | 0.899 | 0.87 | 0.564
partner 8 µg/mL | 0.924 | 0.793 | 0.53
partner 16 µg/mL | 0.756 | 0.716 | 0.443

Conditions | Bliss interaction score
B. subtilis 168 [6] | 0.0538
S. aureus DSM 20231 | -0.0116
S. aureus Newman [4] | -0.0301
S. pneumoniae D39V [5] | -0.0665

From the supplement of paper PMC10627819
